Patent publication US20240285670A1, “THERAPEUTIC TREATMENT OF TUMORS BY BLOCKING THE HEME SYNTHESIS-EXPORT AXIS” (Università degli Studi di Torino, priority 2021, published 2024)

Tested on: SH-SY5Y cells
Test: Mitochondrial ATP levels in SHSY-5Y cells
Type: cell-based, human
Settings: FLVCR1a-silenced vs scramble shRNA SH-SY5Y cells
Text: Results were expressed as nmol NAD*/min/mg mitochondrial protein for complex I, nmol reduced cytochrome c/min/mg mitochondrial protein for complexes II-III, nmol oxidized cytochrome c/min/mg mitochondrial protein for complex IV. Data represent mean±SEM, n=3. For statistical analyses, an unpaired Student's t-test was used; *=p<0.05, **=p<0.01, *=p<0.001. […] Results are expressed as nmol/mg mitochondrial proteins. Data represent mean±SEM, n=3. For statistical analyses, an unpaired Student's t-test was used; *=p<0.05. […] Results are expressed as pmol CO2/h/mg protein. Data represent mean±SEM, n=3. For statistical analyses, an unpaired Student's t-test was used; **=p<0.01. […] Results were expressed as nmol NAD*/min/mg mitochondrial protein for complex I, nmol reduced cytochrome c/min/mg mitochondrial protein for complexes II-III, nmol oxidized cytochrome c/min/mg mitochondrial protein for complex IV. […] Results are expressed as nmol/mg mitochondrial proteins. […] Results are expressed as pmol CO2/h/mg protein. […] (H) TCA cycle enzymes activities are reported in boxes and expressed as mU/mg mitochondrial proteins. […] Results were expressed as nmol NAD^+/min/mg mitochondrial protein for complex I, nmol reduced cytochrome c/min/mg mitochondrial protein for complexes II-III, nmol oxidized cytochrome c/min/mg mitochondrial protein for complex IV. […] Results are expressed as nmol/mg mitochondrial proteins. […]

Q: With “FLVCR1a shRNA: shRNA specifically down-regulating FLVCR1a without targeting FLVCR1b; pLKO.1 lentiviral clone TRCN0000059599, antisense SEQ ID No.: 2 (antisense TTGCTAATGATGCTGTACTGG; sense CCAGTACAGCATCATTAGCAA)” as the substance, how does the “mitochondrial ATP levels” value read?
A: The value was “increased mitochondrial ATP levels”.
